In test [1] the target is T1, Human vitronectin receptor (αv β3) (Homo sapiens, UniProt P05106+P06756).
T1 construct: Human vitronectin receptor (αv β3) was purified from human placenta; from tissue; host or cells: human placenta
Nature of the test: Vitronectin adhesion assay (solid phase receptor assay, αvβ3). Type of test: binding. The conditions noted are these: inhibition of binding of biotinylated human vitronectin (1 nM) to purified receptor; Table I; read-out: AvB3 IC50. The method, then: (§1) The activity of the compounds of the present invention was tested in the following assays.
Human vitronectin receptor (αv β3) was purified from human placenta as previously described [Pytela et al., Methods in Enzymology, 144:475-489 (1987)]. Human vitronectin was purified from fresh frozen plasma as previously described [Yatohgo et al., Cell Structure and Function, 13:281-292 (1988)]. Biotinylated human vitronectin was prepared by coupling NHS-biotin from Pierce Chemical Company (Rockford, Ill.) to purified vitronectin as previously described [Charo et al., J. Biol. Chem., 266(3):1415-1421 (1991)]. Assay buffer, OPD substrate tablets, and RIA grade BSA were obtained from Sigma (St. Louis, Mo.). Anti-biotin antibody was obtained from Calbiochem (La Jolla, Calif.). Linbro microtiter plates were obtained from Flow Labs (McLean, Va.). ADP reagent was obtained from Sigma (St. Louis, Mo.).
(§2) Solid Phase Receptor Assays
This assay was essentially the same as previously reported [Niiya et al., Blood, 70:475-483 (1987)]. The purified human vitronectin receptor (αv β3) was diluted from stock solutions to […] in Tris-buffered saline containing 1.0 mM Ca^++, Mg^++, and Mn^++, pH 7.4 (TBS^+++). The diluted receptor was immediately transferred to Linbro microtiter plates at 100 μL/well (100 ng receptor/well). The plates were sealed and incubated overnight at 4° C. to allow the receptor to bind to the wells. All remaining steps were at room temperature. The assay plates were emptied and 200 μL, of 1% RIA grade BSA in TBS^+++ (TBS^+++ /BSA) were added to block exposed plastic surfaces. Following a 2 hour incubation, the assay plates were washed with TBS^+++ using a 96 well plate washer. Logarithmic serial dilution of the test compound and controls were made starting at a stock concentration of 2 mM and using 2 nM biotinylated vitronectin in TBS^+++ /BSA as the diluent. This premixing of labeled ligand with test (or control) ligand, and subsequent transfer of 50 μL aliquots to the assay plate was carried out with a CETUS Propette robot; the final concentration of the labeled ligand was 1 nM and the highest concentration of test compound was 1.0×10^-4 M. The competition occurred for two hours after which all wells were washed with a plate washer as before. Affinity purified horseradish peroxidase labeled goat anti-biotin antibody was diluted 1:3000 in TBS^+++ /BSA and 125 μL were added to each well. After 30 minutes, the plates were washed and incubated with OPD/H2 O2 substrate in 100 mM/L Citrate buffer, pH 5.0. The plate was read with a microtiter plate reader at a wavelength of 450 nm and when the maximum-binding control wells reached an absorbance of about 1.0, the final A450 were recorded for analysis. The data were analyzed using a macro written for use with the EXCEL™ spreadsheet program. The mean, standard deviation, and % CV were determined for duplicate concentrations. The mean A450 values were normalized to the mean of four maximum-binding controls (no competitor added) (B-MAX). The normalized values were subjected to a four parameter curve fit algorithm [Rodbard et al., Int.

Test [2] deals with T2, Human fibrinogen receptor (αIIb β3) (Homo sapiens, UniProt P05106+P08514).
T2 construct: Human fibrinogen receptor (αIIb β3) was purified from outdated platelets; from tissue; host or cells: human outdated platelets
T2 sequence (P08514 32-887 limits assumed): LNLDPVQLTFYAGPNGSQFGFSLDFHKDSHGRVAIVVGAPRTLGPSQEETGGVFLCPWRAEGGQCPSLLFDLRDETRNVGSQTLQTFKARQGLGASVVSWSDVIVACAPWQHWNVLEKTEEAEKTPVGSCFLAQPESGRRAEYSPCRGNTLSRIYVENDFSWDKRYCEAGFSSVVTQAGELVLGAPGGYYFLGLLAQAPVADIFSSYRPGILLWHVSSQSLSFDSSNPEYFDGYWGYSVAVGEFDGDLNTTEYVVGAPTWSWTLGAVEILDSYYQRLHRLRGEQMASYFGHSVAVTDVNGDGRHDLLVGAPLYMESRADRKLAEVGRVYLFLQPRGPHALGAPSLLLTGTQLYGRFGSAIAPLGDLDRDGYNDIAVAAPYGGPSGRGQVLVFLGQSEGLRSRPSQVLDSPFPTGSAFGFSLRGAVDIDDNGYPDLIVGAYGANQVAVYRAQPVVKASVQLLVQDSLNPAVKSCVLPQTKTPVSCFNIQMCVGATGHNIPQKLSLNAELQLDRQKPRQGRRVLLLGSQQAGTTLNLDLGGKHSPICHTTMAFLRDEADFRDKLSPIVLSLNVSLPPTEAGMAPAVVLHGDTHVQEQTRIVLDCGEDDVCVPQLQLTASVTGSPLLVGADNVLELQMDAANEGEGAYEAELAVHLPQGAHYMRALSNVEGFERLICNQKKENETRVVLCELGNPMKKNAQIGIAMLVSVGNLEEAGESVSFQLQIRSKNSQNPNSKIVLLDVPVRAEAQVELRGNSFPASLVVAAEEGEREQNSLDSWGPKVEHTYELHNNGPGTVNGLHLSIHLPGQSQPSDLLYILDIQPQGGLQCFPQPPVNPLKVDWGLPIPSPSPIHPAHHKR
T2 sequence (P08514 891-1039 limits assumed): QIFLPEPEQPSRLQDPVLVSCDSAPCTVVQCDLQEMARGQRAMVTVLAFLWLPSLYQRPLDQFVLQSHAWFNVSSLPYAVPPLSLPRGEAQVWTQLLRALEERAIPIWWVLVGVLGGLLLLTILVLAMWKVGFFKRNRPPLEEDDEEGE
T2 sequence (P05106 27-788): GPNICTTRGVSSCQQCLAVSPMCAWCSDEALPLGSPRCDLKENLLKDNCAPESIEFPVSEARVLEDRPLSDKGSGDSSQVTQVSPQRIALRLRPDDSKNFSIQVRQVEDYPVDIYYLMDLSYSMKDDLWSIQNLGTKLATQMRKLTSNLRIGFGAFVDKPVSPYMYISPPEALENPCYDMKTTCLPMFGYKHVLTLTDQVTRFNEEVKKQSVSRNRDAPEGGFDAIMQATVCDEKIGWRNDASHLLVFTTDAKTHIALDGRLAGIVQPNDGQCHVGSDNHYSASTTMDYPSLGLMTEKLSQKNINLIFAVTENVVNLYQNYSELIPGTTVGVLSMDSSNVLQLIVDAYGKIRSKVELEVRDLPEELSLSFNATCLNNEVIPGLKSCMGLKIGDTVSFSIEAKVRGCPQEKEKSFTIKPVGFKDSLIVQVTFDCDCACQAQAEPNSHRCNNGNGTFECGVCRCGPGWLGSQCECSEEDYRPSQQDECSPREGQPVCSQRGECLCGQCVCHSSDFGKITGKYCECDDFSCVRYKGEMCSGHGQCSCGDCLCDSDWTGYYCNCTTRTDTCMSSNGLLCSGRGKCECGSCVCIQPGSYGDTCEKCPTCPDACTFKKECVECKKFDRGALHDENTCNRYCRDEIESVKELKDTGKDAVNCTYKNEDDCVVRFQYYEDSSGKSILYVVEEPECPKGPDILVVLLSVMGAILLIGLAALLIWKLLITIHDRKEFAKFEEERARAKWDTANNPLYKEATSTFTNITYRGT
Kind of test: Purified IIb/IIIa receptor assay (solid phase receptor assay). The conditions noted are these: inhibition of binding of biotinylated human vitronectin (1 nM) to purified receptor; Table I. The protocol:
as §1
Human fibrinogen receptor (αIIb β3) was purified from outdated platelets. (Pytela, R., Pierschbacher, M. D., Argraves, S., Suzuki, S., and Rouslahti, E. "Arginine-Glycine-Aspartic acid adhesion receptors", Methods in Enzymology 144(1987):475-489.) Human vitronectin was purified from fresh frozen plasma as described in Yatohgo, T., Izumi, M., Kashiwagi, H., and Hayashi, M., "Novel purification of vitronectin from human plasma by heparin affinity chromatography," Cell Structure and Function 13(1988):281-292. Biotinylated human vitronectin was prepared by coupling NHS-biotin from Pierce Chemical Company (Rockford, Ill.) to purified vitronectin as previously described. (Charo, I. F., Nannizzi, L., Phillips, D. R., Hsu, M. A., Scarborough, R. M., "Inhibition of fibrinogen binding to GP IIb/IIIa by a GP IIIa peptide", J. Biol. Chem. 266(3) (1991): 1415-1421.) Assay buffer, OPD substrate tablets, and RIA grade BSA were obtained from Sigma (St. Louis, Mo.). Anti-biotin antibody was obtained from Calbiochem (La Jolla, Calif.). Linbro microtiter plates were obtained from Flow Labs (McLean, Va.). ADP reagent was obtained from Sigma (St. Louis, Mo.).
as §2
This assay is essentially the same reported in Niiya, K., Hodson, E., Bader, R., Byers-Ward, V. Koziol, J. A., Plow, E. F. and Ruggeri, Z. M., "Increased surface expression of the membrane glycoprotein IIb/IIIa complex induced by platelet activation: Relationships to the binding of fibrinogen and platelet aggregation", Blood 70 (1987):475-483. The purified human fibrinogen receptor (αIIb β3) was diluted from stock solutions to 1.0 μg/mL in Tris-buffered saline containing 1.0 mM Ca^++, Mg^++, and Mn^++, pH 7.4 (TBS^+++). The diluted receptor was immediately transferred to Linbro microtiter plates at 100 μL/well (100 ng receptor/well). The plates were sealed and incubated overnight at 4° C. to allow the receptor to bind to the wells. All remaining steps were at room temperature. The assay plates were emptied and 200 μL of 1% RIA grade BSA in TBS^+++ (TBS^+++ /BSA) were added to block exposed plastic surfaces. Following a 2 hour incubation, the assay plates were washed with TBS^+++ using a 96 well plate washer. Logarithmic serial dilution of the test compound and controls were made starting at a stock concentration of 2 mM and using 2 nM biotinylated vitronectin in TBS^+++ /BSA as the diluent. This premixing of labeled ligand with test (or control) ligand, and subsequent transfer of 50 μL aliquots to the assay plate was carried out with a CETUS Propette robot; the final concentration of the labeled ligand was 1 nM and the highest concentration of test compound was 1.0×10^-4 M. The competition occurred for two hours after which all wells were washed with a plate washer as before. Affinity purified horseradish peroxidase labeled goat anti-biotin antibody was diluted 1:3000 in TBS^+++ /BSA and 125 μL were added to each well. After 30 minutes, the plates were washed and incubated with […]/H2 O2 substrate in 100 mM/L citrate buffer, pH 5.0. The plate was read with a microtiter plate reader at a wavelength of 450 nm and when the maximum-binding control wells reached an absorbance of about 1.0, the final A450 were recorded for analysis. The data were analyzed using a macro written for use with the EXCEL™ spreadsheet program. The mean, standard deviation, and % CV were determined for duplicate concentrations. The mean A450 values were normalized to the mean of four maximum-binding controls (no competitor added) (B-MAX). The normalized values were subjected to a four parameter curve fit algorithm, [Robard et al., Int.

Structures can show the parent of a compound that is named as a salt. Where only a bound is given, the exact number is not on record here.

The source of these data is patent US5852210A, “Cinnamic acid derivatives” (G. D. Searle & Co., priority 1997, dated 1998).

Broadly, the IC50 is the concentration at which inhibition is half-maximal.

T1 sequence (P06756 31-889 limits assumed): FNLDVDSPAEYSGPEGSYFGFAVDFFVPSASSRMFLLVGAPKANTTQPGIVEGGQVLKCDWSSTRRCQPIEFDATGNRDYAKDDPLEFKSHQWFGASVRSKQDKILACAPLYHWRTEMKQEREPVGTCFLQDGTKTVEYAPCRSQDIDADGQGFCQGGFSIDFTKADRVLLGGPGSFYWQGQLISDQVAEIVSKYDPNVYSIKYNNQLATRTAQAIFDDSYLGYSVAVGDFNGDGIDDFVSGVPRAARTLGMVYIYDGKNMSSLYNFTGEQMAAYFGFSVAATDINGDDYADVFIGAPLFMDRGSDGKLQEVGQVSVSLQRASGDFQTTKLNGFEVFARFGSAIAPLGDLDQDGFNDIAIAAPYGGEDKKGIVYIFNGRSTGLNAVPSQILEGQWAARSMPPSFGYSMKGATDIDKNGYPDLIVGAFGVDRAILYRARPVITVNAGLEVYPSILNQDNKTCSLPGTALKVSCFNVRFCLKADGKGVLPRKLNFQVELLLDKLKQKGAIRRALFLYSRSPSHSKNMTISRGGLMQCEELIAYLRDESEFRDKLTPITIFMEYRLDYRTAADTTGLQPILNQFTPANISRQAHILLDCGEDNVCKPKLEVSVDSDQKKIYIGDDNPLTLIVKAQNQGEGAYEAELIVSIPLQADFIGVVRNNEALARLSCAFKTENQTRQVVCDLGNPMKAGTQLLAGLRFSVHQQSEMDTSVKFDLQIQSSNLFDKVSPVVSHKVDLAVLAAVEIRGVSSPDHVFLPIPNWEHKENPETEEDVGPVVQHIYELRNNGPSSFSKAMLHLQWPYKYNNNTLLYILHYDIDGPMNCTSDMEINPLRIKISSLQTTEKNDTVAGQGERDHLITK
T1 sequence (P06756 891-1048 limits assumed): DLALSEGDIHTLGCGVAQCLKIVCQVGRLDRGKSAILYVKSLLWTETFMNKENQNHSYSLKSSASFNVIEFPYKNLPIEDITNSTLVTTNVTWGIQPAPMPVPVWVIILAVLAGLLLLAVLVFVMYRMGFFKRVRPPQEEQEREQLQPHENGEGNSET
T1 sequence (P05106 27-788): as the sequence (P05106 27-788) above

For the compound `N=C(N)Nc1cccc(C(=O)Nc2ccc(/C=C/C(=O)O)c3ccccc23)c1` [Example 16, 3-[4-[[[3-[(aminoiminomethyl)amino]phenyl]carbonyl]-amino]naphthalen-1-yl]-2E-propenoic acid, trifluoroacetate salt], the IC50 came out at 50.9 nM in test [1] and 25.4 nM in test [2].
Taken in the same sequence, the figures for `Cc1cc(/C=C/C(=O)O)ccc1NC(=O)c1cccc(NC2=NCCCN2)c1` [Example 18, 3-[3-methyl-4-[[[3-[(1,4,5,6-tetrahydropyrimidin-2-yl)amino]phenyl]carbonyl]amino]phenyl]propenoic acid, trifluoroacetate salt] were 0.46 nM and 181 nM.
For the compound `CCc1cc(/C=C/C(=O)O)ccc1NC(=O)c1cccc(NC2=NCCCN2)c1` [Example 19, 3-[3-ethyl-4-[[[3-[(1,4,5,6-tetrahydropyrimidin-2-yl)amino]phenyl]carbonyl]amino]phenyl]propenoic acid, trifluoroacetate salt], the IC50 was 0.53 nM in test [1] and 439 nM in test [2].
As to `CCc1cc(/C=C/C(=O)O)ccc1NC(=O)c1cccc(NC2=NCCN2)c1` [Example 21, 3-[4-[[[3-[(4,5-dihydro-1H-imidazol-2-yl)amino]-phenyl]carbonyl]amino]-3-ethylphenyl]propenoic acid, trifluoroacetate salt], the values for the IC50 in test [1] and in test [2] were 0.49 nM and 125 nM, respectively.
Taken in the same sequence, the figures for `O=C(O)/C=C/c1ccc(NC(=O)c2cccc(NC3=NCCCN3)c2)c(Cl)c1` [Example 22, 3-[3-chloro-4-[[[3-[(1,4,5,6-tetrahydropyrimidin-2-yl)amino]phenyl]carbonyl]amino]phenyl]propenoic acid, trifluoroacetate salt] were 0.48 nM and 234 nM.
In the same order, the values of `O=C(O)/C=C/c1ccc(NC(=O)c2cccc(NC3=NCCN3)c2)c(Cl)c1` [Example 23, 3-[3-chloro-4-[[[3-[(4,5-dihydro-1H-imidazol-2-yl)amino]-phenyl]carbonyl]amino]phenyl]-2E-propenoic acid, trifluoroacetate salt] are 0.31 nM and 80.3 nM.
Taken in the same sequence, the figures for `Cc1cc(/C=C/C(=O)O)cc(C)c1NC(=O)c1cccc(NC2=NCCCN2)c1` [Example 24, 3-[3,5-dimethyl-4-[[[3-[(1,4,5,6-tetrahydropyrimidin-2-yl)amino]phenyl]carbonyl]amino]phenyl]-2E-propenoic acid, bis(trifluoroacetate salt)] were 4.93 nM and 8270 nM.
Regarding `Cc1cc(/C=C/C(=O)O)cc(C)c1NC(=O)c1cccc(NC2=NCCN2)c1` [Example 25, 3-[4-[[[3-[(4,5-dihydroimidazol-2-yl)amino]-phenyl]carbonyl]amino]-3,5-dimethylphenyl]-2E-propenoic acid, trifluoroacetate salt], the results for the IC50 in test [1] and in test [2] were 2.82 nM and 1830 nM, respectively.
Taken in the same sequence, the figures for `Cc1cc(/C=C/C(=O)O)cc(C)c1NC(=O)c1cccc(NC(N)=O)c1` [Example 27, 3-[4-[[[3-[(aminocarbonyl)amino]phenyl]carbonyl]-amino]-3,5-dimethylphenyl]propenoic acid, trifluoroacetate salt] were 204 nM and more than 100000 nM.
In the same order, the values of `N=C(N)Nc1cccc(C(=O)Nc2cc(Cl)c(/C=C/C(=O)O)c(Cl)c2)c1` [Example 29, 3-[4-[[[3-[(aminoiminomethyl)amino]phenyl]carbonyl]-amino]-2,6-dichlorophenyl]propenoic acid, dihydrochloride dihydrate] are 1830 nM and 25400 nM.
Taken in the same sequence, the figures for `COc1cc(NC(=O)c2cccc(NC(=N)N)c2)ccc1/C=C/C(=O)O` [Example 31, 3-[4-[[[3-(aminoiminomethyl)amino]phenyl]carbonyl]-amino]-2-methoxyphenyl]propenoic acid, trifluoroacetate salt] were 9.66 nM and 69.1 nM.
Consider `Cc1cc(NC(=O)c2cccc(NC(=N)N)c2)ccc1/C=C/C(=O)O` [Example 33, 3-[4-[[[3-[(aminoiminomethyl)amino]phenyl]carbonyl]-amino]-2-methylphenyl]propenoic acid, trifluoroacetate salt], for which the half-maximal inhibitory concentration (IC50) in test [1] amounted to 73.3 nM; in test [2], 121 nM.
In the same order, the values of `N=C(N)Nc1cccc(C(=O)Nc2ccc(/C=C/C(=O)O)c(C(F)(F)F)c2)c1` [Example 35, trifluoroacetate salt] are 122 nM and 152 nM.
In the same order, the values of `N=C(N)Nc1cccc(C(=O)Nc2ccc(/C=C/C(=O)O)c(C(=O)O)c2)c1` [Example 36, 5-[[[3-[(aminoiminomethyl)amino]phenyl]carbonyl]amino]-2-(2-carboxyethenyl)benzoic acid, trifluoroacetate salt] are 1.23 nM and 9.06 nM.
With `COC(=O)c1cc(NC(=O)c2cccc(NC(=N)N)c2)ccc1/C=C/C(=O)O` [Example 37, methyl 5-[[[3-[(aminoiminomethyl)amino]phenyl]carbonyl]amino]-2-(2-carboxyethenyl)benzoate, trifluoroacetate salt], the IC50 in test [1] came to 32.3 nM; in test [2], 80 nM.
